1 compound from patent US9783539B2, “Indoloquinolone compounds as anaplastic lymphoma kinase (ALK) inhibitors” (Jiangsu Ascentage Biomed Development Inc., priority 2014, dated 2017) can be followed below.

Experiment [1] deals with ALK mutant (S1206Y) (Homo sapiens, UniProt Q9UM73, S1206Y). The experiment in a line: biochemical.
Method: (§1) Kinase activities of all enzymes were assessed using a Lance TR-FRET assay kit from Perkin Elmer Life Sciences (Waltham, Mass.). 2.5 μL of compound solution and 5 μL of protein solution were added into a black low volume 384 well microtiter plate which was incubated for 15 minutes with gentle shaking at room temperature, followed by adding 2.5 μL of fluorescently labeled peptide substrate (Ulight-[sequence]) and ATP mixture solution. The kinase reaction was performed in 50 mM HEPES (pH 7.5) with 1 mM EGTA, 1 mM MgCl2, and 2 mM DTT, 0.01% Tween-20 added right before the assay. […] The reaction was allowed to perform for 90 minutes in dark with gentle shaking at room temperature after which 10 μL of 20 mM EDTA and 2 nM Eu-W1024 anti-phosphotyrosine antibody (PT66) mixture solution in the detection buffer from the manufacturer was added to terminate the reaction and detect the phosphorylation of the peptide substrate. Final mixture was incubated in the dark for 1 hour before the plate was read on a Tecan Infinite M-1000 multi-mode plate reader (Tecan, Durham N.C.) with an excitation wavelength of 320 nm.
The target in experiment [2] is ALK mutant (G1269A) (Homo sapiens, UniProt Q9UM73, G1269A). The experiment in a line: biochemical. The note with it: 100 μM ATP.
Method: as §1
Experiment [3] concerns the target wild-type human ALK protein (cytoplasmic domain, amino acid 1058-1620, GST-fusion) (Homo sapiens, UniProt Q9UM73). The experiment in a line: biochemical. Particulars: 100 μM ATP.
Method: as §1
Experiment [4] deals with Kappas-299 cells containing NPM-ALK fusion protein. The experiment in a line: 4-day cell viability assay (CellTiter-Glo), Kappas-299. The format is cell-based. Particulars: NPM-ALK, 96 h, inhibition of cell growth, 4 days, multiple values from independent experiments. The procedure: The effect of compounds on cell viability was determined in a 4-day proliferation assay. Cells were maintained in RPMI1640 culture medium with 10% FBS at 37° C. and an atmosphere of 5% CO2. […] Cells were seeded in 96-well plates at a density of 3,000-10,000 cells/well in 75 μl of culture medium. Compounds were serially diluted in the appropriate medium, and 75 μl of the diluted compounds were added to the appropriate wells of the cell plate. After the addition of compounds, the cells were incubated at 37° C. in an atmosphere of 5% CO2 for 4 days. Cell viability was determined using the CellTiter-Glo® Luminescent Cell Viability Assay Kit (Promega, Madison, Wis.) (for KARPAS-299 cells) or WST (2-(2-methoxy-4-nitrophenyl)-3-(4-nitrophenyl)-5-(2,4-disulfophenyl)-2H-tetrazolium, monosodium salt) Cell Counting-8 Kit (Dojindo Molecular Technologies, Inc., Rockville, Md.) (for H3122 cells) according to the manufacturers' instructions.
For CellTiter-Glo assay, 100 μl of CellTiter-Glo® Reagent was added to each well, and then the plates were incubated at room temperature for 10-20 minutes. The luminescent signal was measured using a Tecan Infinite M1000 multimode microplate reader (Tecan, Morrisville, N.C.). The readings were normalized to the DMSO-treated cells and the IC50 was calculated by nonlinear regression analysis using the GraphPad Prism 5 software.
Cells were treated for four days and cell growth was determined using a CellTiter-Glo assay.
For orientation: In ATP-based viability assays light output follows the ATP content of the culture.

One may read the IC50 as the concentration at which inhibition is half-maximal. A low value points to greater potency.

Chain of wild-type human ALK protein (cytoplasmic domain, amino acid 1058-1620, GST-fusion) (Q9UM73 1058-1620): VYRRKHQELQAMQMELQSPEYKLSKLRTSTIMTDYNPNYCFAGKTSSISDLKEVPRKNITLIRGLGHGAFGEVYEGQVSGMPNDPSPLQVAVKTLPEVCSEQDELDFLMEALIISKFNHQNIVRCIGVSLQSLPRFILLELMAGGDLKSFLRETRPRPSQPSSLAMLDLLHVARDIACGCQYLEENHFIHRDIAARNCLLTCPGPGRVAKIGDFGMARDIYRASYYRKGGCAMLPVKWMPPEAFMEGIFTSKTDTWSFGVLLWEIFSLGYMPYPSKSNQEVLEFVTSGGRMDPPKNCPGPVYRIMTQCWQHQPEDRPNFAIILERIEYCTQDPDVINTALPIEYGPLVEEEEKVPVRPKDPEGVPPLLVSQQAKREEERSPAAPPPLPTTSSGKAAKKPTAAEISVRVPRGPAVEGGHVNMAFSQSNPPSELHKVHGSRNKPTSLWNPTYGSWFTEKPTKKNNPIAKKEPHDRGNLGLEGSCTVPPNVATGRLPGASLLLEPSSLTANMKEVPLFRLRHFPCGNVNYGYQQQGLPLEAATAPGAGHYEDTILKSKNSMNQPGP
Chain of ALK mutant (S1206Y) (Q9UM73 19-1620 S1206Y): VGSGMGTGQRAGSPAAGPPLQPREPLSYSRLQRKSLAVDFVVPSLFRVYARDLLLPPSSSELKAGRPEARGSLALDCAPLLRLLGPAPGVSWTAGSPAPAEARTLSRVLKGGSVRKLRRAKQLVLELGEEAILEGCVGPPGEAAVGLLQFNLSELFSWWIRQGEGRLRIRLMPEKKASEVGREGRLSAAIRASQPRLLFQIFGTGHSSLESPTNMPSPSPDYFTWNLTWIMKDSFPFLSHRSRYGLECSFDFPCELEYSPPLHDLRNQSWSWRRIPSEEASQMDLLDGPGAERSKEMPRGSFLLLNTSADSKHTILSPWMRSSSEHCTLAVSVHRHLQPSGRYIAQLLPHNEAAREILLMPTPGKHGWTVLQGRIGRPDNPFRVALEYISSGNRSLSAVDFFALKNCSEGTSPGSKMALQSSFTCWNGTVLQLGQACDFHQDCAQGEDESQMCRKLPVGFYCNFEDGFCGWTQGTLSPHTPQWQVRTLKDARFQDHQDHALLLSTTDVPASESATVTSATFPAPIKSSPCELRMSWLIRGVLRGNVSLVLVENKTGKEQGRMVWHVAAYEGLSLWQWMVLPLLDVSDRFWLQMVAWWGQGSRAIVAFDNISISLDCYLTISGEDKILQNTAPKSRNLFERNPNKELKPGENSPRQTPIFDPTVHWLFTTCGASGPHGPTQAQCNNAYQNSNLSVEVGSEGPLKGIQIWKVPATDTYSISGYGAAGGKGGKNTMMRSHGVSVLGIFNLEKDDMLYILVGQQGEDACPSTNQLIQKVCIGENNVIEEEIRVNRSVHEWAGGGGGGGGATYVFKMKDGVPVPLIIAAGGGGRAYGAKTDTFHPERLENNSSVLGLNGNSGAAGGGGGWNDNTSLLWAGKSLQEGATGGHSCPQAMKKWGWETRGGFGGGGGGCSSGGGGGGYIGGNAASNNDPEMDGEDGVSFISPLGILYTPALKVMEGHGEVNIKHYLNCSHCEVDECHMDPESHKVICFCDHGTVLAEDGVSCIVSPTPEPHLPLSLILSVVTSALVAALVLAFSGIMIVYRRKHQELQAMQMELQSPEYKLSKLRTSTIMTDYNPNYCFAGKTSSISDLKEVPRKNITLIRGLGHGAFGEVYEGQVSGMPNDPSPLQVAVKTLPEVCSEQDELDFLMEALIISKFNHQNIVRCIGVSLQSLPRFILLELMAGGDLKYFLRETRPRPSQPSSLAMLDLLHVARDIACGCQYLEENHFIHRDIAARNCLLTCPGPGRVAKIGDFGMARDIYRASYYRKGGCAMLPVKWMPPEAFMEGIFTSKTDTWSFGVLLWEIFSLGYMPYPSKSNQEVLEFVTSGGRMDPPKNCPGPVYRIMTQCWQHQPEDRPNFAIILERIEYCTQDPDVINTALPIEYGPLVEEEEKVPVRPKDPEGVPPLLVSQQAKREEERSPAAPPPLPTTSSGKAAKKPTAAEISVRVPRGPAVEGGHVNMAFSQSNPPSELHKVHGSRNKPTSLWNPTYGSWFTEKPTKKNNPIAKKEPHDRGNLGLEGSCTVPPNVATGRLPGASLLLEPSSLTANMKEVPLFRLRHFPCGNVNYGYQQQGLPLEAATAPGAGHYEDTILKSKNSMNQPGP
Chain of ALK mutant (G1269A) (Q9UM73 19-1620 G1269A): as the sequence (Q9UM73 19-1620 S1206Y) above, with Y1188S, G1251A counted along it

`C#Cc1cc2c(=O)c3c4ccc(C#N)cc4[nH]c3n(C3CCC3)c2cc1N1CCN(C)CC1` [ALK-72, 5-Cyclobutyl-2-ethynyl-3-(4-methylpiperazin-1-yl)-11-oxo-6,11-dihydro-5H-indolo[2,3-b]quinoline-8-carbonitrile]: the IC50 in experiment [1] was 2.8 nM; in experiment [2], 2.4 nM; in experiment [3] (ALK IC50, wild-type ALK), 0.67 nM; in experiment [3] (IC50 ALK Wild-type, Table 2, wild-type ALK), 0.67 nM; in experiment [4], 52 nM.
